System: 945468-187-T-J2-PDC spheroids viability
Assay: Anticancer human tumor 945468-187-T-J2-PDC patient-derived rectal carcinoma cell line growth inhibition [PI3K]
Conditions: spheroids with HUVEC and MSC; for IC50: curve of first compound; for viability, T/C: stronger effect = lower value
Outline: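 Multi-cell spheroids combine tumor cells with HUVEC and human MSCs, treated with targeted agents alone or with inavolisib, alpelisib, duvelisib or copanlisib. Concentrations fall in half-log steps from at or near clinical Cmax, or from 10 microM where Cmax is unknown; viability read-out.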

[1] = second compound 0.0316 µM, first compound 0.0316 µM
[2] = second compound 0.0316 µM, first compound 0.1 µM
[3] = second compound 0.0316 µM, first compound 0.316 µM
[4] = second compound 0.0316 µM, first compound 1 µM
[5] = second compound 0.0316 µM, first compound 3.16 µM
[6] = second compound 0.0316 µM, first compound 10 µM
[7] = second compound 0.1 µM, first compound 0.0316 µM
[8] = second compound 0.1 µM, first compound 0.1 µM
[9] = second compound 0.1 µM, first compound 0.316 µM
[10] = second compound 0.1 µM, first compound 1 µM
[11] = second compound 0.1 µM, first compound 3.16 µM
[12] = second compound 0.1 µM, first compound 10 µM
[13] = second compound 0.316 µM, first compound 0.0316 µM
[14] = second compound 0.316 µM, first compound 0.1 µM
[15] = second compound 0.316 µM, first compound 0.316 µM
[16] = second compound 0.316 µM, first compound 1 µM
[17] = second compound 0.316 µM, first compound 3.16 µM
[18] = second compound 0.316 µM, first compound 10 µM
[19] = second compound 1 µM, first compound 0.0316 µM
[20] = second compound 1 µM, first compound 0.1 µM
[21] = second compound 1 µM, first compound 0.316 µM
[22] = second compound 1 µM, first compound 1 µM
[23] = second compound 1 µM, first compound 3.16 µM
[24] = second compound 1 µM, first compound 10 µM
[25] = second compound 3.16 µM, first compound 0.0316 µM
[26] = second compound 3.16 µM, first compound 0.1 µM
[27] = second compound 3.16 µM, first compound 0.316 µM
[28] = second compound 3.16 µM, first compound 1 µM
[29] = second compound 3.16 µM, first compound 3.16 µM
[30] = second compound 3.16 µM, first compound 10 µM
[31] = second compound 10 µM, first compound 0.0316 µM
[32] = second compound 10 µM, first compound 0.1 µM
[33] = second compound 10 µM, first compound 0.316 µM
[34] = second compound 10 µM, first compound 1 µM
[35] = second compound 10 µM, first compound 3.16 µM
[36] = second compound 10 µM, first compound 10 µM
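Further: spheroids exposed to compounds for seven days before reading.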

C#Cc1c(F)ccc2cc(O)cc(-c3ncc4c(N5CC6CCC(C5)N6)nc(OCC56CCCN5CC(F)C6)nc4c3F)c12 (centres undefined) + Cc1nc(NC(=O)N2CCCC2C(N)=O)sc1-c1ccnc(C(C)(C)C(F)(F)F)c1
IC50 (second compound 0.0316 µM): > 10 µM
IC50 (second compound 0.1 µM): > 10 µM
IC50 (second compound 0.316 µM): > 10 µM
IC50 (second compound 1 µM): > 10 µM
IC50 (second compound 3.16 µM): > 10 µM
IC50 (second compound 10 µM): > 10 µM
viability, T/C [1]: 110%
viability, T/C [2]: 110%
viability, T/C [3]: 105%
viability, T/C [4]: 103%
viability, T/C [5]: 135%
viability, T/C [6]: 107%
viability, T/C [7]: 125%
viability, T/C [8]: 114%
viability, T/C [9]: 102%
viability, T/C [10]: 107%
viability, T/C [11]: 136%
viability, T/C [12]: 105%
viability, T/C [13]: 103%
viability, T/C [14]: 100%
viability, T/C [15]: 116%
viability, T/C [16]: 102%
viability, T/C [17]: 164%
viability, T/C [18]: 99.1%
viability, T/C [19]: 125%
viability, T/C [20]: 93.6%
viability, T/C [21]: 109%
viability, T/C [22]: 116%
viability, T/C [23]: 106%
viability, T/C [24]: 90.5%
viability, T/C [25]: 85.6%
viability, T/C [26]: 85.8%
viability, T/C [27]: 95.4%
viability, T/C [28]: 94.1%
viability, T/C [29]: 94%
viability, T/C [30]: 117%
viability, T/C [31]: 85.5%
viability, T/C [32]: 73.2%
viability, T/C [33]: 99%
viability, T/C [34]: 92.6%
viability, T/C [35]: 77%
viability, T/C [36]: 80.9%

CC1(C)CCC(Nc2ncc(C(F)(F)F)c(-c3c[nH]c4c(P(C)(C)=O)c(C#N)ccc34)n2)CN1 (centres undefined) + Cc1nc(NC(=O)N2CCCC2C(N)=O)sc1-c1ccnc(C(C)(C)C(F)(F)F)c1
IC50 (second compound 0.0316 µM): 2.65 µM
IC50 (second compound 0.1 µM): 2.14 µM
IC50 (second compound 0.316 µM): > 10 µM
IC50 (second compound 1 µM): > 10 µM
IC50 (second compound 3.16 µM): 1.98 µM
IC50 (second compound 10 µM): 2.32 µM
viability, T/C [1]: 95.8%
viability, T/C [2]: 104%
viability, T/C [3]: 78.4%
viability, T/C [4]: 62.9%
viability, T/C [5]: 47%
viability, T/C [6]: 45.3%
viability, T/C [7]: 87%
viability, T/C [8]: 85.4%
viability, T/C [9]: 93.2%
viability, T/C [10]: 55.2%
viability, T/C [11]: 53.1%
viability, T/C [12]: 41.6%
viability, T/C [13]: 87.8%
viability, T/C [14]: 130%
viability, T/C [15]: 80.3%
viability, T/C [16]: 59.2%
viability, T/C [17]: 48.1%
viability, T/C [18]: 45.5%
viability, T/C [19]: 89.8%
viability, T/C [20]: 99.3%
viability, T/C [21]: 91.4%
viability, T/C [22]: 53.8%
viability, T/C [23]: 48.5%
viability, T/C [24]: 55.3%
viability, T/C [25]: 99.8%
viability, T/C [26]: 106%
viability, T/C [27]: 73.7%
viability, T/C [28]: 57%
viability, T/C [29]: 50.1%
viability, T/C [30]: 43.1%
viability, T/C [31]: 81.8%
viability, T/C [32]: 77.5%
viability, T/C [33]: 48.9%
viability, T/C [34]: 53.7%
viability, T/C [35]: 60.2%
viability, T/C [36]: 39.4%
